Source: patent publication US20250108054A1, “METHODS FOR TREATING PERSISTENT OR CHRONIC IMMUNE THROMBOCYTOPENIA IN CHILDREN, ADOLESCENTS AND ADULTS BY ADMINISTERING (R)-2-[3-[4-AMINO-3-(2-FLUORO-4-PHENOXY-PHENYL)PYRAZOLO[3,4-D]PYRIMIDIN-1-YL]PIPERIDINE-1-CARBONYL]-4-METHYL-4-[4-(OXETAN-3-YL)PIPERAZIN-1-YL]PENT-2-ENENITRILE” (Principia Biopharma Inc., priority 2023, published 2025)
Read-outs that look alike come from different tables or passages of the source.

Legend:
adults with ITP = test: response to prior ITP medication of adults enrolled in LUNA 3; type: in vivo, human; details: patients who received that medication
Text: Eligible patients had primary ITP for a duration of >3 months for adults (age ≥18 years) and >6 months for adolescent (age 12-17 years) and pediatric patients (age […]; EU only), and two average platelet counts <30×10^9/[…] within 2 weeks before treatment (Kuter et al. 2023).
Overall, 202 adults with a median age of 47 years (range, 18-80) enrolled from 154 study sites as of Sep. 28, 2023 (see Table 3); enrollment is complete for adults and ongoing for pediatrics. Most adults were female (63%), white (62%) or Asian (32%), and not Hispanic/Latino (77%). Geographic regions enrolling patients included Asia/Pacific (35% of patients), West Europe (24% of patients), South America (17% of patients), East Europe (16% of patients), and North America (8% of patients). Patients had ITP for a median duration of 7.7 years, with 75% having a duration >3 years. […] The most common prior ITP therapies were CS (96%), TPO-RA (66%), and IVIg ([…]); patients' prior responses are shown in Table 3.

ITP patients = details: cited from earlier work
BTK enzyme = BTK enzyme (Homo sapiens, UniProt Q06187); details: healthy volunteers, doses providing 100% BTK occupancy; cited from earlier work
Sequence of BTK enzyme (Q06187 whole entry): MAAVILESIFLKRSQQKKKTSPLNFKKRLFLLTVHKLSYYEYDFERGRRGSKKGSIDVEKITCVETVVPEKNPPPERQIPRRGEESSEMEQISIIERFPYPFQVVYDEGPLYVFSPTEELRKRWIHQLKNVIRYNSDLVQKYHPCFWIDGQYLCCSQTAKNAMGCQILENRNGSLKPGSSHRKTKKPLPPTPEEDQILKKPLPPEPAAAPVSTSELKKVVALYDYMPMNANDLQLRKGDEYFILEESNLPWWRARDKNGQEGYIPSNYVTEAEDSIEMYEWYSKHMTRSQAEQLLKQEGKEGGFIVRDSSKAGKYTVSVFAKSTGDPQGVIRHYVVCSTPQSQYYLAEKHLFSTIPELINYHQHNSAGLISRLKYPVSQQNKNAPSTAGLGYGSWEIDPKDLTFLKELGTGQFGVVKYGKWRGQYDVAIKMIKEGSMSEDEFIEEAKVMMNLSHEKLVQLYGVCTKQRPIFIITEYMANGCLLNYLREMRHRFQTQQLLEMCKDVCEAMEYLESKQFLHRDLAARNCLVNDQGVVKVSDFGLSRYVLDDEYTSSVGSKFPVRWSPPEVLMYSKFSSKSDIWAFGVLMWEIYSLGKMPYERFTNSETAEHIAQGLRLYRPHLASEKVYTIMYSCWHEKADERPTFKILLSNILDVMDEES

251 kinases = test: broad kinase enzyme inhibition panel; type: biochemical; details: 1 μM; of 251 kinases
[1] = target: T1, tyrosine protein kinase TEC (Homo sapiens, UniProt P42680); test: kinase enzyme inhibition, TEC; type: biochemical
T1 sequence (P42680 1-631): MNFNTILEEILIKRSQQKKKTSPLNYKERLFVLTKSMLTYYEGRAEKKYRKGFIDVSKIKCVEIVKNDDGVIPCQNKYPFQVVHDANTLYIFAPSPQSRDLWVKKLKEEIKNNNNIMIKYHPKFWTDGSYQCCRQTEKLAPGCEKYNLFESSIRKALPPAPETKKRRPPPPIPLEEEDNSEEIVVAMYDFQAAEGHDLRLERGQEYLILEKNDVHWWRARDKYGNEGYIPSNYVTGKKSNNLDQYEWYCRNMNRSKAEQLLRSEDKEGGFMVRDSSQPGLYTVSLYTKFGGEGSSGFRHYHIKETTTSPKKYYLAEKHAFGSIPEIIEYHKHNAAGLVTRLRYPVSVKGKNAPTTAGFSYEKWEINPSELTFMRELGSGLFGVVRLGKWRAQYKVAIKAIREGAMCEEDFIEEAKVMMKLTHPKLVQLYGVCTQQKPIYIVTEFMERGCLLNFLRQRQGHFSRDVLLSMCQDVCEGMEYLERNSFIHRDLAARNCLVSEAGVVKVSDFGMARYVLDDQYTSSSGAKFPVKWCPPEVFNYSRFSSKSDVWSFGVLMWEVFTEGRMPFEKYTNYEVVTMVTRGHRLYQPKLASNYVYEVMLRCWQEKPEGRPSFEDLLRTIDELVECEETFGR

[2] = target: T2, bone marrow tyrosine kinase on chromosome X (BMX) (Homo sapiens, UniProt P51813); test: kinase enzyme inhibition, BMX; type: biochemical
T2 sequence (P51813 1-675): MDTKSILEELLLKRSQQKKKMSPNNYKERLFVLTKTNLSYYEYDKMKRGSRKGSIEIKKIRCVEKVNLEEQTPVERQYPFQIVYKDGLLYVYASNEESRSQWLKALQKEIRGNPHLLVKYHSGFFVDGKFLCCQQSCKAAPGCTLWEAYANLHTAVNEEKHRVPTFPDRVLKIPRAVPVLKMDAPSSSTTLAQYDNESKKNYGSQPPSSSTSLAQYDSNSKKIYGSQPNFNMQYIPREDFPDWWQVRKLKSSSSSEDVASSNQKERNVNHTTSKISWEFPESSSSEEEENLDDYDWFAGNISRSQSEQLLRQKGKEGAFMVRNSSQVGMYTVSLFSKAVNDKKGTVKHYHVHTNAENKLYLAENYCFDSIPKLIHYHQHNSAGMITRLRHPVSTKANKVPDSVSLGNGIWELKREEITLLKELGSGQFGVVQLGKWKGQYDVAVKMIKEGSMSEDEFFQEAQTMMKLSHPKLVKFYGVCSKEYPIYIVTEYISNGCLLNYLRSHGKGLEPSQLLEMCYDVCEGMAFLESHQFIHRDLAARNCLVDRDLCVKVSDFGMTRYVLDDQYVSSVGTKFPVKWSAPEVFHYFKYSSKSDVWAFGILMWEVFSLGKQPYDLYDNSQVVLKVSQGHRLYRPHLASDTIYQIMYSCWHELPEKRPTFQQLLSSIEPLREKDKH

[3] = target: T3, (Homo sapiens, UniProt P42681); test: kinase enzyme inhibition, RLK; type: biochemical
T3 sequence (P42681 1-527): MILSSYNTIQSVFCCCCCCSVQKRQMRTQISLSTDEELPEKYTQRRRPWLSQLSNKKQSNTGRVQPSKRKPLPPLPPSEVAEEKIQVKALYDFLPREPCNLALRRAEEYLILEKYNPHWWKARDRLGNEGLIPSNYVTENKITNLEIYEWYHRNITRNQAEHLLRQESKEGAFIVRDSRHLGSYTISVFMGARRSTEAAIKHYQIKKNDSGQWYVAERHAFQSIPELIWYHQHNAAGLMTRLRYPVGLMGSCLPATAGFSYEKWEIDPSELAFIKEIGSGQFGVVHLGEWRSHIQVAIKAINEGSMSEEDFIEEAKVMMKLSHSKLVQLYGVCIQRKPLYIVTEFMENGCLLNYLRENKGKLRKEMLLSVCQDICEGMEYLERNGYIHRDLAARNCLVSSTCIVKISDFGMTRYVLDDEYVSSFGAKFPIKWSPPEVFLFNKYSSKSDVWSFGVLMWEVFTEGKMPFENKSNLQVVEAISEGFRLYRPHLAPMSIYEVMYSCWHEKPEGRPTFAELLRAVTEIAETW

[4] = target: B cell lymphocyte kinase (BLK) (Homo sapiens, UniProt P51451); test: kinase enzyme inhibition, BLK; type: biochemical
Sequence of B cell lymphocyte kinase (BLK) (P51451 whole entry, species assumed): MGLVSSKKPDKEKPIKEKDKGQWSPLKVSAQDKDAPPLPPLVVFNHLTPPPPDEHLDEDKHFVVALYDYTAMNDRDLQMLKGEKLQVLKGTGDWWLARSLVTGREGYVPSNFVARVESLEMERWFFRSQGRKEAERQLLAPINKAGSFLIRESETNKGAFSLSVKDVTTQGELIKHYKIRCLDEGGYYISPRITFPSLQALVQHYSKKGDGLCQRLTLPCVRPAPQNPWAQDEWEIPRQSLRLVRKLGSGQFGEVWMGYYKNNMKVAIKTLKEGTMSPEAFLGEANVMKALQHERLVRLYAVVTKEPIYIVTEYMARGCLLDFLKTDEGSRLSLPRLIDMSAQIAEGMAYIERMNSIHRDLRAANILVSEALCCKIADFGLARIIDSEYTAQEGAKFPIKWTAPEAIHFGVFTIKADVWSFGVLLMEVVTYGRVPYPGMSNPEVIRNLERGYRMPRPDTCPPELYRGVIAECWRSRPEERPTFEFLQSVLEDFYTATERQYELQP

ERBB4 = ERBB4 (Homo sapiens, UniProt Q15303); test: kinase enzyme inhibition, ERBB4; type: biochemical
Sequence of ERBB4 (Q15303 26-1308, species assumed): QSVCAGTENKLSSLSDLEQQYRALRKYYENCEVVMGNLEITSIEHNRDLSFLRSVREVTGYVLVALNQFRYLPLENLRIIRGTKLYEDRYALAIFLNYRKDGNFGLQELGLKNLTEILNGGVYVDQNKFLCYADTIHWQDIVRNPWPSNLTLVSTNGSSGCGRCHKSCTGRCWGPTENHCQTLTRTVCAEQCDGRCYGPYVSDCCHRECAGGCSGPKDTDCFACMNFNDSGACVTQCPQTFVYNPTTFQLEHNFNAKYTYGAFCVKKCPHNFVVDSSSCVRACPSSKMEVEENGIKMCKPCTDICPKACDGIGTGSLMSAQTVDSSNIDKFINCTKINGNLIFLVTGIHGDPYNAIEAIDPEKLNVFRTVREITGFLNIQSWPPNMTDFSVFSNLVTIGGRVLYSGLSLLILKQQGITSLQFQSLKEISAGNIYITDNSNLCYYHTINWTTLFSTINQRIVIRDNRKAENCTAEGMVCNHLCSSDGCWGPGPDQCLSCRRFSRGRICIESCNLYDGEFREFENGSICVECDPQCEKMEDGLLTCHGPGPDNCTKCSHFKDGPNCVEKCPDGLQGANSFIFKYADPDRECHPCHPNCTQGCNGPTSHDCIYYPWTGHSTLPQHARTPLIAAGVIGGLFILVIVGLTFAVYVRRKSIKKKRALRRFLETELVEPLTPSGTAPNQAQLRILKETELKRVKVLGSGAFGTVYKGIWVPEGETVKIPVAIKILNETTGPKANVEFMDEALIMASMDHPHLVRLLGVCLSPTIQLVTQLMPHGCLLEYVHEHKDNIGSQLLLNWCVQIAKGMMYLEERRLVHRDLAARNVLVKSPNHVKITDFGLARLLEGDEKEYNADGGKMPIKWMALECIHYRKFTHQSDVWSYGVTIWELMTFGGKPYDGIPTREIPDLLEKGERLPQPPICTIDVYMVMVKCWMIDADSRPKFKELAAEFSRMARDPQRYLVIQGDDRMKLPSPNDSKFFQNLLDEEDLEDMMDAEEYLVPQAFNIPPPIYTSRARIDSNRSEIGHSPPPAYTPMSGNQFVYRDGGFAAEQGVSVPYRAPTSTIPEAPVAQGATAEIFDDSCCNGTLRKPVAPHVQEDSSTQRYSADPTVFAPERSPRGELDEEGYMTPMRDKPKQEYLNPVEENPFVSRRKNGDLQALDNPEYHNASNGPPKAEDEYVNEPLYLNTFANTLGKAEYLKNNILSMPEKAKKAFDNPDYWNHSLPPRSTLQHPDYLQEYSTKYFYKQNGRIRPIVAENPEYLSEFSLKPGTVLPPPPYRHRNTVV

other TEC family members = test: preclinical assay of persistence of binding, other TEC family members
human B cell activation = human B cell activation in vitro; type: cell-based
Fc receptor signaling = test: antibody (IgG, IgE) mediated activation of immune cells in vitro; type: cell-based
mouse model of ITP = test: mouse model of ITP; type: in vivo
[5] = humans, oral administration; cited from earlier work
platelet aggregation = details: healthy volunteers or patients with ITP; cited from earlier work
[6] = system: adult patients with persistent or chronic ITP; test: LUNA 3 phase 3 double-blind placebo-controlled study; details: for Number of weeks with platelet counts 50 × 10^9/L, LSmean (SE) / Number of weeks with platelet counts between ≥30 × 10^9/L and <50 × 10^9/L and at least doubled from baseline, LSmean (SE): absence of rescue medication; for Time to platelet response, Median (95% CI): N = 133
[7] = system: patients with relapsed ITP; details: for median PVI: main treatment period
[8] = 400 mg BID, 24-week blinded period
[9] = 400 mg BID, 24-week blinded period, listed as Rilzabrutinib

**Q.** Which “Response to prior ITP medication (resulted in platelet count ≥50 × 10^9/L), %” value (adults with ITP) does the source give for `COc1cc(Nc2ncc(F)c(Nc3ccc4c(n3)N(COP(=O)(O)O)C(=O)C(C)(C)O4)n2)cc(OC)c1OC` [fostamatinib] here?
**A.** The value was “(30) %”.

**Q.** And the “Response to prior ITP medication (resulted in platelet count ≥50 × 10^9/L), n/n” value (adults with ITP)?
**A.** The value was 7/23.

**Q.** What about the durable response rate (ITP patients; heavily pretreated ITP patients) of the same molecule?
**A.** Its durable response rate is roughly 18%.

**Q.** For `C=CC(=O)Nc1cccc(Nc2nc(Nc3ccc(OCCOC)cc3)ncc2F)c1` [CC-292], which tolerability (BTK enzyme) is on record?
**A.** The tolerability was “well tolerated”.

**Q.** For “Rituximab: Anti-CD20 monoclonal antibody, second line ITP therapy”, which “Response to prior ITP medication (resulted in platelet count ≥50 × 10^9/L), %” value (adults with ITP) is on record?
**A.** Its value is “(32) %”.

**Q.** And the “Response to prior ITP medication (resulted in platelet count ≥50 × 10^9/L), n/n” value (adults with ITP)?
**A.** The value was 22/68.

**Q.** And the “durable on-treatment response rates” value (ITP patients; ITP, second line therapy)?
**A.** The value was 60-80%.

**Q.** What does the source list for `CC(C)(C=C(C#N)C(=O)N1CCC[C@@H](n2nc(-c3ccc(Oc4ccccc4)cc3F)c3c(N)ncnc32)C1)N1CCN(C2COC2)CC1` (mixture of isomers) [rilzabrutinib, (R)-2-[3-[4-amino-3-(2-fluoro-4-phenoxy-phenyl)pyrazolo[3,4-d]pyrimidin-1-yl]piperidine-1-carbonyl]-4-methyl-4-[4-(oxetan-3-yl)piperazin-1-yl]pent-2-enenitrile]?
**A.** number of kinases with >90% inhibition (251 kinases): 6; IC50 [1]: 0.8 nM; IC50 [2]: 1 nM; IC50 [3]: 1.2 nM; IC50 [4]: 6.3 nM; IC50 (ERBB4): 11 nM; binding to other TEC family members over time (other TEC family members): decayed rapidly over time; human B cell activation (human B cell activation): profoundly inhibits; antibody (IgG, IgE) mediated activation of immune cells via Fc receptor signaling (Fc receptor signaling): blocks; platelet-loss (consumption) (mouse model of ITP): significant dose dependent reduction; absorption [5]: rapidly absorbed; half-life [5]: 3 to 4 h; effect on platelet aggregation (platelet aggregation): does not alter platelet aggregation; day by which 25% of participants achieved a platelet response ([6]; 400 mg BID): 10 days; median time to rescue therapy ([6]; 400 mg BID): never reached the median; Number of weeks with platelet counts 50 × 10^9/L, LSmean Difference (95% CI) vs placebo [6, 8]: 6.46 (4.923, 7.990) weeks; Number of weeks with platelet counts between ≥30 × 10^9/L and <50 × 10^9/L and at least doubled from baseline, LSmean Difference (95% CI) vs placebo [6, 8]: 6.31 (4.787, 7.831) weeks; Number of weeks with platelet counts 50 × 10^9/L, LSmean (SE) [6, 8]: 7 weeks; Number of weeks with platelet counts between ≥30 × 10^9/L and <50 × 10^9/L and at least doubled from baseline, LSmean (SE) [6, 8]: 7 weeks; Number of weeks with platelet counts 50 × 10^9/L, LSmean (SE) [6, 9]: 7.18 (0.747) weeks; Number of weeks with platelet counts between ≥30 × 10^9/L and <50 × 10^9/L and at least doubled from baseline, LSmean (SE) [6, 9]: 6.95 (0.749) weeks; Durable response, Difference (95% CI) vs placebo ([6]; 400 mg BID, 24-week double-blind period): 23.1 (15.95, 30.31) %; Time to platelet response, Median (95% CI) ([6]; 400 mg BID): 36 days; Time to platelet response, Median (95% CI) ([6]; 400 mg BID, listed as Rilzabrutinib): 36 (22, 44) days; tolerability ([6]; 400 mg BID, adult patients with ITP): generally well tolerated; reduction in the need for rescue therapy ([6]; 400 mg BID, vs placebo): 52%; ITP-PAQ physical fatigue score, Change from baseline, LSmean Difference (95% CI) vs placebo ([6]; At Week 13): 8.08 (1.818, 14.337); ITP-PAQ physical fatigue score, Change from baseline, LSmean (SE) ([6]; At Week 13, 400 mg BID): 7.95 (2.132); Bleeding as assessed by IBLS, Change from baseline, LSmean Difference (95% CI) vs placebo ([6]; At Week 25): −0.087 (−0.1358, −0.0373); ITP-PAQ physical fatigue score, Change from baseline, LSmean Difference (95% CI) vs placebo ([6]; At Week 25): 11.95 (5.416, 18.493); Bleeding as assessed by IBLS, Change from baseline, LSmean (SE) ([6]; At Week 25, 400 mg BID): −0.040 (0.0169); ITP-PAQ physical fatigue score, Change from baseline, LSmean (SE) ([6]; At Week 25, 400 mg BID): 4.69 (2.263); Bleeding as assessed by IBLS, Change from baseline, LSmean (SE) ([6]; At Week 25, 400 mg BID, listed as Rilzabrutinib): −0.040 (0.0169) ^; TEAE diarrhea, participants ([6]; rilzabrutinib arm): 32.3%; TEAE headache, participants ([6]; rilzabrutinib arm): 18%; TEAE nausea, participants ([6]; rilzabrutinib arm): 20.3%; tolerability ([7]; Part A): generally well tolerated; bleeding (IBLS score) ([7]; Part B): no evidence of increased bleeding; median platelet counts maintained ([7]; Part B, 400 mg BID, throughout main treatment period and LTE): ≥ 5e+10 µL⁻¹; HRQOL ([7]; Part B, multiple individual and overall HRQOL health domains): Clinically meaningful improvements; median PVI ([7]; non-responding patients): 3; median PVI ([7]; responding patients): 2
